Values of other authors as cited in patent publication US20140284468A1, “Cancer patient selection for administration of therapeutic agents using mass spectral analysis of blood-based samples” (Biodesix, Inc., priority 2010, published 2014).

System: NSCLC, SCCHN, and CRC patients
Conditions: VeriStrat poor subgroup, monotherapy versus placebo

In the case of `C#Cc1cccc(Nc2ncnc3cc(OCCOC)c(OCCOC)cc23)c1` [erlotinib], the treatment benefit is listed as “essentially equivalent to treatment with placebo”.
